In one data set the test system is LARG-RhoA interaction. The experiment in a line: LARG-RhoA interaction by co-immunoprecipitation and Western blot in Ang II-stimulated SHR VSMCs. The data set is classed as cell-based, rat. The text has this: (§1) The culture procedure of the primary cultured vascular smooth muscle cells (VSMCs) used in this example or the following examples is as follows. SHRs were anesthetized with Zoletil 50, and the thoracic aortas were immediately excised. The samples were then carefully cleaned of connective tissue and adherent fat. Each isolated aorta was cut open longitudinally, followed by endothelial removal by gently grazing the intimal surface. The denuded aortas were cut into approximately 2 mm^2 sections and then placed with the intimal side down. The M199 medium supplemented with 20% fetal bovine serum and antibiotics (100 U/ml penicillin and 100 μg/ml streptomycin) were then gently added to cover the tissues without disturbing the orientation of the explants. VSMCs were allowed to grow out from the explants for 7-10 days culture, and the tissues were removed.
The treatment method of the small molecule compounds used in this example or the following examples is as follows. Small molecule compounds were dissolved in pure water to test their effects on the VSMCs. […]
The procedure of cell harvest and protein extraction used in this example or the following examples is as follows. […] The protein concentrations were determined using a BSA Protein Assay kit. […]

Data set [1] relates to myosin phosphatase target subunit 1 (MYPT1) phosphorylation. Briefly: MYPT1 phosphorylation by Western blot in Ang II-stimulated SHR VSMCs. The data set is classed as cell-based, rat.
Source text: as §1
The treatment method of the small molecule compounds used in this example or the following examples is as follows. Small molecule compounds were dissolved in pure water to test their effects on the VSMCs. Different concentrations of Y16 or the combination of Y16+Rhosin were administered for 24 hours, followed by stimulation with 10^−7M angiotensin II (Ang II) for 10 min. The Y16 concentrations used were as follows: 1 μM, 2.5 μM, 5 μM, 10 μM, 30 μM, 50 μM.
The procedure of cell harvest and protein extraction used in this example or the following examples is as follows. Culture dishes were placed on ice and washed twice with ice-cold phosphate-buffered saline (PBS). All subsequent procedures were performed over ice. […] The protein concentrations were determined using a BSA Protein Assay kit.
The procedure of Western blot analysis used in this example or the following examples is as follows. […] Signals were visualized using a UVP Imaging System (UVP) or with X-ray film, and the results were expressed as the densitometric ratio of target protein/GAPDH or phosphor-MYPT1/total-MYPT1. […]
In general terms: Immunoblotting shows a protein as a band on a membrane.

The subject of the next data set is SHR primary VSMCs. The experiment in a line: MTT assay for cell viability of SHR primary VSMCs. In kind it is cell-based, rat. Conditions: 1, 2.5, 5, 10, 30, or 50 μmol/L Y16, 24 hours. As for the experimental part: The procedure of 3-(4,5-dimethylthiazol-2-yl)-2,5-diphenyltetrazolium bromide (MTT) assay for cell viability used in this example is as follows. The cytotoxicity results for Y16 or Rhosin were determined using an MTT-based in vitro assay. Briefly, the media from the cell cultures was discarded and carefully aspirated. Next, 50 μL of serum-free media and 50 μL of MTT solution were added into each well. The plate was then incubated at 37° C. for 3 hours. After incubation, 150 μL of MTT solvent (4 mM HCl, 0.1% NP40 in isopropanol) was added into each well. The plate was then wrapped in foil and shaken on an orbital shaker for 15 minutes, and the absorbance was read at OD=590 nm.
A general note: Formazan colour is commonly taken as a measure of viable cells.

Data set [2] deals with spontaneously hypertensive rats (SHRs). The experiment in a line: Physiological signals recording (BP, HR) in anesthetized SHRs after intravenous injection. The data set is classed as in vivo, rat. The settings on record: for decrease of BP: versus 0 min. The source says:
According to the present invention, the statistical analysis used in the following examples is described as follows. For the physiological signals recording, the data from different time intervals of each rat was compared with that from before Y16 and Rhosin administration. Considering the differences of physiological conditions among individuals, the BP and HR are not calculated by the absolute value measured, but by the percentage of the BP or HR measured at each time point relative to those measured before administration (0 minutes). All data were representative of at least four independent experiments.
(§2) The animal model used in this example or the following examples is illustrated as follows. The Institutional Animal Care and Use Committee of the Fu Jen Catholic University, New Taipei, Taiwan (Approval No A10660), approved all of the animal procedures and experimental protocols. Male 16-week-old SHRs (body weight range: 350-370 g) were purchased from the National Laboratory Animal Center, Taipei, Taiwan. The animals were housed at a temperature of 21° C. under a 12 h light/dark cycle and fed a regular pellet diet. The animals were divided into three main groups—the Y16 group, the Rhosin group, and the Y16+Rhosin group. Each group was further divided into several subgroups according to the administered Y16 and Rhosin dose. Their concentrations are listed below: Y16 group: 0.2 mg/kg, 1 mg/kg, 5 mg/kg, 10 mg/kg, 20 mg/kg; Rhosin group: 5 mg/kg, 10 mg/kg, 20 mg/kg; Y16+Rhosin group: (Y16, 3 mg+Rhosin, 7 mg)/kg, (Y16, 5 mg+Rhosin, 10 mg)/kg.
(§3) The procedure of physiological signals recording and blood tests used in this example or the following examples is as follows. The rats were anesthetized with Zoletil 50 (30 mg/kg, intraperitoneal injection) and then attached to a physiological signal recording device. The Y16 and Rhosin were administered to them by intravenous injection. Their electrocardiography (ECG), heart rate (HR), and blood pressure (BP) measurements were taken for 90 minutes. After observing and recording the physiological signals, blood was drawn from the rats in an appropriate test tube and stored for subsequent tests for complete blood cell count, liver function and renal function. The rats were then sacrificed. Their heart, lungs, liver, and kidneys were removed and stored in paraformaldehyde for further histological examinations.

The test system is the same in data set [3]. Briefly: Blood tests (complete blood cell count, liver function) in SHRs after dosing. The data set is classed as in vivo, rat. Conditions: for platelets count (PLC) or white blood cell counts (WBC): significant versus control. As for the experimental part: as §2, §3
The animal model and experimental procedure of this example are the same as those described in Example 6. To observe whether the use of Y16 or Rhosin might have adverse effects or even harm to the animals, the blood of rats was drawn for the blood test after collecting the required physiological signals.

Data set [4] shares this test system. Briefly: Histological examination (HE) of heart, liver, lung and kidney of SHRs. In kind it is in vivo, rat. Conditions: doses used in the experiments. As for the experimental part:
as §3
The procedure of histological examination used in this example is as follows. The tissues were fixed in 4% paraformaldehyde overnight and then embedded in paraffin for histological examination. The transverse sections (4 μm) were incubated at 75˜85° C. for 10 minutes, followed by stained with hematoxylin/eosin (HE), and examined under a light microscope. Severity of lesions was graded according to the methods described by Shackelford et al. (2002). […]

On to `Cc1cccc(COc2cccc(/C=C3\C(=O)NN(c4ccccc4)C3=O)c2)c1` [Y16, (E)-4-(3-(3-methylbenzyloxy)benzylidene)-1-phenylpyrazolidine-3,5-dione], for which the “LARG-RhoA interaction, relative amount of RhoA normalized to GAPDH” value with LARG-RhoA interaction (50 μM Y16, 24 h, then 10^−7M Ang II 10 min, control 0.939±0.121, p<0.001) is 0.469±0.074. The “inhibition of LARG-RhoA complex formation induced by Ang II” value in the data set with LARG-RhoA interaction (Y16 1-50 μM, 24 h) is recorded as “dose-dependently inhibited”. Further, the “phospho-MYPT1 normalized to total-MYPT1” value in data set [1] (5 μM Y16, 24 h, then 10^−7M Ang II 10 min, control 0.994±0.048, P=0.041) was 0.642±0.199. Further, the “inhibition of MYPT1 phosphorylation” value in data set [1] (Y16 1-50 μM, 24 h) was “dose-dependent inhibition”. Also, in data set [1] (lowest concentration with statistically significant difference), the “working concentrations required for the effective inhibition of MYPT1 phosphorylation” value was determined as 5 µM. The “effect on the growth (cell viability) of SHR VSMCs” value in the data set on SHR primary VSMCs is listed as “no conspicuous effect on the growth”. Besides, the “effect on BP” value in data set [2] (0.2 mg/kg iv) and in data set [2] (1 mg/kg iv) was “no effects on BP” throughout. Besides, the entries for the “duration of BP decrease” value in data set [2] (5 mg/kg iv), in data set [2] (10 mg/kg iv) and in data set [2] (20 mg/kg iv) were 30 min, “over 60 minutes” and “over 60 minutes”, respectively. Besides, the “decrease of BP” value in data set [2] (5 mg/kg iv) and in data set [2] (10 mg/kg iv) was 21% throughout. Moreover, the “BP as percentage of BP before administration (0 min)” value is listed as 79%±13% in data set [2] (5 mg/kg iv, p=0.0081); 79%±12% in data set [2] (10 mg/kg iv, p=0.0007); 58%±8% in data set [2] (20 mg/kg iv, 20 minutes, p=0.0187). Also, the “reduction of HR” value in data set [2] (20 mg/kg iv, for 30 minutes, not statistically significant) came to 16%. Also, the “maximum blood pressure reduction effect” value in data set [2] (20 mg/kg iv, in 20 minutes) stood at 42%. In addition, the “HR as percentage of HR before administration (0 min)” value in data set [2] (20 mg/kg iv, p=0.1067) is listed as 84%±8%. Moreover, the “platelets count (PLC) or white blood cell counts (WBC)” value in data set [3] (0.2 mg/kg iv) and in data set [3] (1 mg/kg iv) was “slightly high” each time. In data set [3] (doses used in the experiments, iv), the “abnormalities regarding complete blood cell count and liver function” value is “did not cause any overt abnormalities”. In data set [4], the “injuries by histological analyses of heart, liver, lungs, and kidneys” value is “did not cause any overt injuries”.
